Results published in patent publication US5444064A, “Method of treating gastrointestinal malignancies” (Montefiore Medical Center, priority 1989, dated 1995).

What was measured:
HT-29 cells = experiment: Cytokinetic studies (cell cycle distribution by flow cytometry), HT-29; type: cell-based, human
SW480 cells = experiment: Cytokinetic studies (cell cycle distribution by flow cytometry), SW480; type: cell-based, human
[1] = test system: disseminated colorectal cancer; conditions: cited from earlier work
[2] = 5-fluorouracil 50-500 uM, 24 hour incubation

O=c1[nH]cc(F)c(=O)[nH]1 [5-fluorouracil]
depletion of G2M (HT-29 cells; [2]): nearly complete depletion of G2M
time to depletion of G2M compartment (HT-29 cells; time course, from start of incubation): ≤ 7 h
depletion of G2M (SW480 cells; [2]): nearly complete depletion of G2M
effect on cell cycle versus HT-29 (SW480 cells; 5-fluorouracil and alpha-2a-interferon alone or in combination, data not shown): qualitatively identical effects
prolongation of the block in G0/G1 (SW480 cells; data not shown): 24 h
completeness and duration of response ([1]; human, in vivo): rarely respond completely and the duration of the response is generally short
remissions ([1]; patients with disseminated colorectal cancer): 15-35%
median survival ([1]; versus untreated controls): no better than that of untreated controls
